Reference: patent EP1101496A1, “THERAPEUTIC AGENTS FOR ALLERGIC DISEASES” (FUJI YAKUHIN KOGYO KABUSHIKI KAISHA, priority 1998, dated 2000)

What was measured:
[1] = tested on: infiltration of leukocytes into an air pouch; test: Allergic inflammation model (air pouch model); type: in vivo, rats; conditions: 10 mg/kg or 30 mg/kg into the air pouch or intraperitoneally; 8 hours after the second challenge; dexamethasone 0.1 mg/kg as comparison
Protocol: Compound No. 8 was dissolved in physiological saline to make the final concentration 2.5 mg/mL (equal to 10 mg/kg) or 7.5 mg/mL (equal to 30 mg/kg) and administered into an air pouch of animals or intraperitoneally at a dose of 4 mL/kg. Dexamethasone was also dissolved in physiological saline to make the final concentration 25 µg/mL (equal to 0.1 mg/kg) and administered into an air pouch of animals at a dose of 4 mL/kg. Administration into such an air pouch was conducted simultaneously with the second challenge while the intraperitoneal administration was 30 minutes prior to the second challenge. Acetylated bovine serum albumin diazo-coupled with arsanilic acid (ABA-AcBSA) was prepared according to the Ouchi et al. and Tabachnick et al. methods as disclosed in Ouchi et al., "Seibutsu Yakukagaku Jikken Koza, Ensho To Allergy (Inflammation and Allergy) I-2", pp.194 to 206, Hirokawa Publishing Co., Japan and Tabachnick et al., The Journal of Biological Chemistry, 234: 1726- 1730, 1959, and mixed with a Freund's complete adjuvant (Difco) at an equal ratio. The mixture was treated using a connection-type glass syringe to form an emulsion which was used as a sensitizing solution. […] The retrieved exudates were measured by a dye-exclusion method using a haematocytometer and the number of exudated leukocytes were counted.

[2] = Body weight gain in sensitized mice (experimental atopic dermatitis model); type: in vivo; conditions: painted on auricles twice a day; Compound No. 8 50 µg/ear/dose, prednisolone 5 µg/ear/dose; Days 1, 4 and 7; versus solvent control (ethanol)
Protocol: Experimental atopic dermatitis model mice sensitized in the same manner as in Example 1 were examined for influence on body weight gains.
A solution of a test metalloproteinase inhibitor (Compound No. 8; 50 µg/ear/dose, twice a day) in ethanol or a solution of prednisolone (5 µg/ear/dose, twice a day) in ethanol was administered to mice (5 animals per group) by painting onto both sides of a pair of the auricles, not only one hour prior to elicitation but also 0.25, 3, 4, 5 and 6 days post-elicitation. Each mouse was measured for its body weight not only immediately before the start in painting but also on Days 1, 4 and 7 after the start in painting. Each gain in body weight was calculated and considered to indicate an effect on body weight changes affected by said treatments.

[3] = Mouse body weight gain (side-effect index); type: in vivo, mice; conditions: average ± standard deviation; once a day Days 0-5; Compound No. 8 or 10 60 mg/kg s.c., prednisolone 10 mg/kg i.p.
Protocol: Next the mice were measured for their body weight.

[4] = tested on: mouse scratching behavior; test: Scratching behavior in experimental atopic dermatitis model; type: in vivo, mice; conditions: for % Inhibition (scratching behavior) / Scratching Behavior (Times) (Average± Deviation): 0.1% in ethanol painted on auricles 1 hour pre-elicitation; for % Inhibition (scratching behavior): 15 to 30 min and 30 to 45 min post-elicitation durations, versus solvent control; for Scratching Behavior (Times) (Average± Deviation): counts for the 15 to 30 min and 30 to 45 min post-elicitation durations
Protocol: Mice were passively sensitized with anti-DNP IgE Ab and then elicited by painting 0.1% DNFB in ethanol onto both sides of a pair of mouse auricles […] in the same manner as in Example 1. Five minutes pre-elicitation, an ethanolic solution containing 0.3% of Compound No. 20 was painted onto both sides of a pair of the auricles at a dose of 10 µL per each side. Tacrolimus (Fujisawa Pharmaceutical Co., Ltd.) was used as a positive control drug. An ethanolic solution containing 0.1% of the positive control drug was prepared just prior to use and then painted onto the mouse auricles 1 hour pre-elicitation in the same manner as for the painting of Compound No. 20. A negative control group was painted with a solvent alone (6 animals per group).
From the point immediately after elicitation, each mouse was housed individually in a comparted acrylic cage and observed by taking a video without any attendant up to 2 hours after elicitation (Inagaki, N., et al., The European Journal of Pharmacology, 367: 361-371, 1999). After finishing such a video recording, scratching behavior by mouse hind paws to a pair of ears was visually examined for each mouse and integrated scratching behaviors were counted during 6 post-elicitation durations for 20 minutes each; 0 to 20 min., 20 to 40 min., 40 to 60 min., 60 to 80 min., 80 to 100 min., and 100 to 120 min. In this experiment, an action from a start to scratch the ear by the mouse hind paw to a release of the hind paw is counted as one scratching behavior.
Mice were passively sensitized with anti-DNP IgE Ab and then elicited with 0.1% DNFB in ethanol 24 hours post-sensitization in the same manner as in Example 12. One hour pre-elicitation, a 0.1% solution of a metalloproteinase inhibitor (Compound No. 20 or 21) in ethanol was painted onto both sides of a pair of the auricles at a dose of 10 µL per each side. A negative control group was painted with a solvent alone. From the point immediately after the elicitation, each mouse was housed individually in a comparted cage and observed by taking a video without any attendant up to 2 hours thereafter (3 animals per group). In the same manner as in Example 12, scratching behaviors by mouse hind paws were counted for every 15 minutes: 8 post-elicitation durations; 0 to 15 min., 15 to 30 min., 30 to 45 min., 45 to 60 min., 60 to 75 min., 75 to 90 min., 90 to 105 min., and 105 to 120 min.

Compound: CNC(=O)[C@H](Cc1ccc(NC(=N)N)cc1)NC(=O)[C@H](CC(C)C)C(CCCc1ccccc1)C(=O)NO (single isomer, unassigned) [Compound No. 8, N-[4-(N-hydroxyamino)-2(R)-isobutyl-3(R or S)-(3-phenyltrimethylene)succinyl]-L-4'-guanidophenylalanine-N-methylamide 1 acetate]
- infiltration of leukocytes into an air pouch (FIG. 13) [1]: significantly inhibited
- gain in body weight (FIG. 9) [2]: almost equivalent to that in the solvent control group
- Body Weight Gain, Day 5 [3]: 0.57± 0.61
- Body Weight Gain, Day 7 [3]: 0.77± 0.55
- Body Weight Gain, Day 10 [3]: 1.20± 0.26

Compound: CNC(=O)[C@H](Cc1ccc(NC(=N)N)cc1)NC(=O)[C@H](CC(C)C)C(CCCc1ccccc1)C(=O)NO.Cl (single isomer, unassigned) [Compound No. 20, N-[4-(N-hydroxyamino)-2(R)-isobutyl-3(R or S)-(3-phenyltrimethylene)succinyl]-L-4'-guanidophenylalanine-N-methylamide 1 hydrochloride]
- % Inhibition (scratching behavior) [4]: 40.7%
- Scratching Behavior (Times) (Average± Deviation) [4]: 124.0 ± 43.6 Times
- inhibitory efficacy on scratching in the 20 to 40 min post-elicitation duration (FIG. 8) ([4]; 0.3% Compound No. 20 versus 0.1% tacrolimus, painted on auricles): higher than that of tacrolimus
- efficacy on mouse scratching behavior (FIG. 8) ([4]; 0.3% ethanolic solution painted on auricles 10 µL per side 5 minutes pre-elicitation, observed up to 2 hours): apparently inhibits mouse scratching behavior

Compound: CNC(=O)[C@H](Cc1ccc(N=C(N)N)cc1)NC(=O)[C@@H](CC(=O)NO)CC(C)C.O=S(=O)(O)O [Compound No. 21, N-[4-(N-hydroxyamino)-2(R)-isobutylsuccinyl]-L-4'-guanidophenylalanine-N-methylamide 1 sulfate]
- % Inhibition (scratching behavior) [4]: 54.1%
- Scratching Behavior (Times) (Average± Deviation) [4]: 96.0 ± 32.6 Times
